Test results: patent US20240368133A1, “Compounds for the Treatment of Pain, in Particular, Neuropathic Pain, and/or Other Diseases or Disorders that are Associated with AT2R and/or AT2R Mediated Signaling” (Confo Therapeutics N.V., priority 2021, published 2024)

How the values were obtained:
[1] = Liver microsomal stability, mouse; type: in vitro ADME; conditions: male, pH 7.4, liver microsomes
Procedure: (§1) Mouse hepatic microsomes were isolated from pooled (50), perfused livers of male Balb/c mice. Rat hepatic microsomes were isolated from pooled (15), perfused livers of male Wistar rats. Isolation was performed according to the standard protocol (Hill, J. R. in Current Protocols in Pharmacology 7.8.1-7.8.11, Wiley Interscience, 2003). The batches of microsomes were tested for quality control using Imipramine, Propranolol and Verapamil as reference compounds.
(§2) Microsomal incubations were carried out in 96-well plates in 5 aliquots of 40 μL each (one for each time point). Liver microsomal incubation medium contained PBS (100 mM, pH 7.4), MgCl2 (3.3 mM), NADPH (3 mM), glucose-6-phosphate (5.3 mM), glucose-6-phosphate dehydrogenase (0.67 units/ml) with 0.42 mg of liver microsomal protein per ml. Control incubations were performed replacing the NADPH-cofactor system with PBS. Test compound (2 μM, final solvent concentration 1.6%) was incubated with microsomes at 37° C., shaking at 100 rpm. Incubations were performed in duplicates. Five time points over 40 minutes have been analyzed. The reactions were stopped by adding 12 volumes of 90% acetonitrile-water to incubation aliquots, followed by protein sedimentation by centrifuging at 5500 rpm for 3 minutes. […]. Supernatants were analyzed using the HPLC system coupled with tandem mass spectrometer (API3000 PE Sciex). Acquisition and analysis of the data were performed using Analyst 1.5.2 software (PE Sciex). The elimination constant (kel), half-life (t½) and intrinsic clearance (Clint) were determined in plot of […] versus time, using linear regression analysis:
(§3) Mouse hepatic microsomes were isolated from pooled, perfused livers of male CD1 mice. Rat hepatic microsomes were isolated from pooled, perfused livers of male Sprague Dawley rats. Dog hepatic microsomes were isolated from pooled, perfused livers of male Beagle dogs. The batches of microsomes were tested for quality control using Testosterone, Propranolol and Caffeine as reference compounds.
(§4) A 10 mM stock solution of compound in DMSO is diluted three-fold in DMSO. This pre-diluted compound solution is then further diluted to 2 μM in a 50 mM phosphate buffer (PBS, pH 7.4) and pre-warmed at 37° C. This compound dilution is mixed F2 with microsomal/cofactor mix at 37° C. under shaking at 300 rpm. Final reaction conditions are: 100 μL incubation volume, 1 μM of test compound (in duplicate), <0.1% DMSO, 0.5 mg/mL microsomes, 0.6 U/mL Glucose-6-phosphate-dehydrogenase (G6PDH, Roche, 10127671001), 3.3 mM MgCl2 (Sigma, M2670), 3.3 mM glucose-6-phosphate (Sigma, G-7879) and 1.3 mM NADP+ (Sigma, N-0505).
(§5) After 60 min of incubation at 300 rpm and 37° C., the reaction was stopped with 3 volumes of STOP solution (acetonitrile/MeOH 2/1 with diclofenac as internal standard). For the time point zero, 3 volumes of STOP solution were added to the compound dilution before the microsome mix was added. Six time points over 60 minutes have been analyzed. The samples of all time points were centrifuged, filtered and the supernatant analyzed by LCMS/MS (systems API4000).
(§6) The instrument responses (peak areas/IS peak area) were referenced to the zero time-point samples (considered as 100%) in order to determine the percentage of compound remaining.
(§7) Testosterone (1 μM) and Propranolol and Caffeine (1 μM) were used as reference compounds, being unstable and stable compounds respectively. If the microsomal stability values for these controls are not in the range determined by the historical data, the assay is not validated. The solubility of the compound in the final test concentration in 50 mM buffer pH 7.4 is checked by microscope to indicate whether precipitation is observed or not. If a precipitate is observed, no data of microsomal stability is generated.

[2] = target: CYP1A2 (Homo sapiens (Human), UniProt P05177); test: in vitro
Procedure: The aim of this assay is to determine the inhibitory potential of a test compound. A major concern for drug-drug-interaction is cytochrome P450 inhibition. Reversible CYP inhibition was determined in human liver microsomes using specific probe substrates for human cytochrome P450 isoenzymes CYP1A2, 2C9, 2C19, 2D6 and 3A4.
The potential for CYP450 inhibition was assessed by performing in vitro inhibition studies using fluorogenic CYP450 substrates with the corresponding CYP450 enzymes and NADPH regeneration system (Vivid CYP450 Screening Kits) with some minor changes to the manufacturer's protocols. The fluorescent signal produced from reaction is directly proportional to the cytochrome P450 activity. In the cases when tested compounds interfere with the CYP450 enzyme-substrate reaction, the fluorescent signal decreases. In brief, the tested compounds were first dissolved in DMSO at 100× concentration (1 mM), and diluted in buffer to 2.5× concentration (25 μM). Then the 2.5× compound solutions were mixed with the Master Pre-mix consisting of Human CYP450+Oxidoreductase and NADP+Regeneration System (glucose-6-phosphate and glucose-6-phosphate dehydrogenase). After 10 minutes pre-incubation, the enzymatic reaction was initiated by the addition of a mix of NADPH and the appropriate CYP450 substrates. The plate was incubated for the desired reaction time (25 min for CYP1A2, CYP2C9, CYP2D6, and CYP3A4, 60 min for CYP2C19) after which Stop Reagent was added and fluorescence measured using SpectraMax Paradigm Multi-Mode Microplate Reader. All test points were performed in quadruplicates at concentration 10 μM (1% DMSO).
A 10 mM stock solution of test compound is prepared in methanol. This stock is further serially diluted 1:3 in methanol and then added to mixture containing 50 mM potassium phosphate buffer pH7.4, human liver microsomes (BD Gentest) and probe substrate. After pre-warming 5 min at 37° C., the reaction is started by adding co-factor mix ([…] glucose-6-phosphate, 1.7 mg/mL NADP, 6 U/mL of glucose-6-phosphate dehydrogenase), resulting in a final concentration of test compound at 10 μM (2% MeOH).
Final concentrations of co-factor mix components are as follows: 1.56 mg/mL glucose-6-phosphate, 0.34 mg/mL NADP, 1.2 U/mL of glucose-6-phosphate dehydrogenase.
After incubation at 37° C., the reaction (aliquot of 50 μL) is terminated with 150 μL CH3CN:MeOH (2:1) solution with internal standard (warfarin for 2C9, diclofenac for all other tested isoforms). Samples are centrifuged and the supernatant fractions analyzed by LC-MS/MS.
The instrument responses (ratio of test compound and internal standard peak areas) are referenced to those for solvent controls (assumed as 100%) in order to determine the percentage reduction in probe metabolism. Percent of control activity vs. concentration plots are generated and fitted using GraphPad Prism software to generate IC50.

[3] = Liver microsomal stability, rat; type: in vitro ADME; conditions: male, pH 7.4, liver microsomes
Procedure: as §1, §2, §3, §4, §5, §6, §7

CYP1A2, sequence (P05177 whole entry): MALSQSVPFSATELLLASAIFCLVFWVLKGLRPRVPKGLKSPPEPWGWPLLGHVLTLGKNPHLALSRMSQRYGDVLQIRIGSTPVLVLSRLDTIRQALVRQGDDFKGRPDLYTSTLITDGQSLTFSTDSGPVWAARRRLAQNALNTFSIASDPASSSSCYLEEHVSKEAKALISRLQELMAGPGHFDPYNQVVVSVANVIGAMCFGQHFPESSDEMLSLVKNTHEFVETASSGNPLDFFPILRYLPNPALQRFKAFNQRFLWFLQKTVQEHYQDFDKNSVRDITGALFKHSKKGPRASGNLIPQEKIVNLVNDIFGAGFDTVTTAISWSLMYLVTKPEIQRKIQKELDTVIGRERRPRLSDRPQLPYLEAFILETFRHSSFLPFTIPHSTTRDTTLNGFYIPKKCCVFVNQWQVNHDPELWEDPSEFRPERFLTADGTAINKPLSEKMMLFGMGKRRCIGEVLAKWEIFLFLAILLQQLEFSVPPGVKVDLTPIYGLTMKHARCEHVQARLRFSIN

| Compound | microsomal CLint [1] | inhibition at 10 µM [2] | microsomal CLint [3] |
| --- | --- | --- | --- |
| CCCCNC(=O)NS(=O)(=O)c1ccc(C(F)(F)F)cc1N1CCN(Cc2nc3ccccc3n2C)CC1 [Compound A-10, 1-butyl-3-[2-[4-[(1-methylbenzimidazol-2-yl)methyl]piperazin-1-yl]-4-(trifluoromethyl)phenyl]sulfonyl-urea] | 69 µL/min/mg | 23% | 28 µL/min/mg |
| CC(C)Oc1ccc(-c2nn[nH]n2)c(N2CCN(Cc3nc4ccccc4n3C)CC2)c1 [Compound A-24, 2-[[4-[5-isopropoxy-2-(2H-tetrazol-5-yl)phenyl]piperazin-1-yl]methyl]-1-methyl-benzimidazole] | 9 µL/min/mg | 27.4% | 7 µL/min/mg |
| CC(C)Cc1ccc(-c2nn[nH]n2)c(N2CCN(Cc3nc4ccccc4c(=O)[nH]3)CC2)c1 [Compound A-31, 2-[[4-[5-isobutyl-2-(2H-tetrazol-5-yl)phenyl]piperazin-1-yl]methyl]-3H-quinazolin-4-one] | 16 µL/min/mg | 6.09% | 5 µL/min/mg |
| CC(C)Oc1ccc(-c2nn[nH]n2)c(N2CCN(Cc3nc4ccccc4c(=O)[nH]3)CC2)c1 [Compound A-32] | 6 µL/min/mg | 7.17% | 13 µL/min/mg |
| Cc1cc(CN2CCN(c3cc(CC(C)C)ccc3-c3nn[nH]n3)CC2)no1 [Compound A-82, 3-[[4-[5-isobutyl-2-(2H-tetrazol-5-yl)phenyl]piperazin-1-yl]methyl]-5-methyl-isoxazole] | 7 µL/min/mg | 9.89% | 4 µL/min/mg |
| CC(C)Cc1ccc(-c2nn[nH]n2)c(N2CCN(Cc3nccn3C)CC2)c1 [Compound A-83, 1-[5-isobutyl-2-(2H-tetrazol-5-yl)-phenyl]-4-[(1-meth-ylimidazol-2-yl)-methyl]piperazine] | 11 µL/min/mg | 2.61% | 3 µL/min/mg |
| CC(C)Cc1ccc(-c2nn[nH]n2)c(N2CCN(Cc3ccnn3C)CC2)c1 [Compound A-84, 1-[5-isobutyl-2-(2H-tetrazol-5-yl)phenyl]-4-[(1-methylpyrazol-5-yl)methyl]piperazine] | 17 µL/min/mg | 5.6% | 7 µL/min/mg |
| CCC1CN(c2cc(CC(C)C)cc(F)c2-c2nn[nH]n2)CCN1Cc1cccnn1 (stereo not shown) [Compound A-178, 3-[[2-ethyl-4-[3-fluoro-5-isobutyl-2-(2H-tetrazol-5-yl)phenyl]piperazin-1-yl]methyl]pyridazine] | 15 µL/min/mg | 23.5% | 5 µL/min/mg |

Now from value to molecule:

| microsomal CLint [1] | inhibition at 10 µM [2] | microsomal CLint [3] | Compound |
| --- | --- | --- | --- |
| 7 µL/min/mg | 22.5% | 7 µL/min/mg | CC(C)Cc1ccc(-c2nn[nH]n2)c(N2CCN(Cc3ncccn3)CC2)c1 [Compound A-88] |
| 10 µL/min/mg | 10.3% | 4 µL/min/mg | CC(C)Cc1ccc(-c2nn[nH]n2)c(N2CCN(Cc3cccnn3)CC2)c1 [Compound A-90, 3-[[4-[5-isobutyl-2-(2H-tetrazol-5-yl)phenyl]piperazin-1-yl]methyl]pyridazine] |
| 5 µL/min/mg | 18.5% | 12 µL/min/mg | CC(C)Cc1cc(F)c(-c2nn[nH]n2)c(N2CCN(Cc3cccnn3)C(C)C2)c1 (stereo not shown) [Compound A-173, 3-[[4-[3-fluoro-5-isobutyl-2-(2H-tetrazol-5-yl)phenyl]-2-methyl-piperazin-1-yl]methyl]pyridazine] |
| 15.3 µL/min/mg | 22.7% | < 17.3 µL/min/mg | CC(C)Cc1cc(F)c(-c2nn[nH]n2)c(N2CCN(Cc3cccnn3)[C@@H](C)C2)c1 [Compound A-174, 3-[[(2S)-4-[3-fluoro-5-isobutyl-2-(2H-tetrazol-5-yl)phenyl]-2-methyl-piperazin-1-yl]methyl]pyridazine] |
| – | 16% | < 17.3 µL/min/mg | CC(C)Cc1cc(F)c(-c2nn[nH]n2)c(N2CCN(Cc3ccccn3)[C@@H](C)C2)c1 [Compound A-217, (2S)-4-[3-fluoro-5-isobutyl-2-(2H-tetrazol-5-yl)phenyl]-2-methyl-1-(2-pyridylmethyl)piperazine] |
| – | 16% | 24.1 µL/min/mg | Cc1cnc(CN2CCN(c3cc(CC(C)C)cc(F)c3-c3nn[nH]n3)C[C@@H]2C)s1 [Compound A-223, 2-[[(2S)-4-[3-fluoro-5-isobutyl-2-(2H-tetrazol-5-yl)phenyl]-2-methyl-piperazin-1-yl]methyl]-5-methyl-thiazole] |
